| SMILES | melting point |
| --- | --- |
| CCN(CC)S(=O)(=O)N=C(N(C)C)N1CC(c2ccccc2)C(c2ccc(F)cc2)=N1 (stereo not drawn) [Example 64, N′-((Diethylamino)sulfonyl)-N,N-dimethyl-3-(4-fluorophenyl)-4-phenyl-4,5-dihydro-1H-pyrazole-1-carboxamidine] | 159 to 160 °C |
| CSC(=NS(=O)(=O)N(C)C)N1CC(c2ccccc2)C(c2ccc(Cl)cc2)=N1 (stereo not drawn) [Example 36, 3-(4-Chlorophenyl)-N-((dimethylamino)sulfonyl)-4-phenyl-4,5-dihydro-1H-pyrazole-1-carboximidothioic acid methyl ester] | 159 to 160 °C |
| CCN(CCN(C)C)S(=O)(=O)N=C(SC)N1CC(c2ccccc2)C(c2ccc(Cl)cc2)=N1 (stereo not drawn) [Example 95, 3-(4-Chlorophenyl)-N-(((2-(dimethylamino)ethyl)ethylamino)sulfonyl)-4-phenyl-4,5-dihydro-1H-pyrazole-1-carboximidothioic acid methyl ester] | 158 °C |
| CNC(=NS(=O)(=O)N1CCCCC1)N1CC(c2cccc(F)c2)C(c2ccc(Cl)cc2)=N1 (stereo not drawn) [Example 82, 3-(4-Chlorophenyl)-4-(3-fluorophenyl)-N-methyl-N′-((piperidin-1-yl)sulfonyl)-4,5-dihydro-1H-pyrazole-1-carboxamidine] | 170 °C |
| CCN(CC)S(=O)(=O)N=C(NCCO)N1CC(c2ccccc2)C(c2ccc(Cl)cc2)=N1 (stereo not drawn) [Example 3, 3-(4-Chlorophenyl)-N′-((diethylamino)sulfonyl)-N-(2-hydroxyethyl)-4-phenyl-4,5-dihydro-1H-pyrazole-1-carboxamidine] | 104 to 106 °C |
| CNC(=NS(=O)(=O)N1CCCCC1)N1CC(c2c(F)cccc2F)C(c2ccc(Cl)cc2)=N1 (stereo not drawn) [Example 81, 3-(4-Chlorophenyl)-4-(2,6-difluorophenyl)-N-methyl-N′-((piperidin-1-yl)sulfonyl)-4,5-dihydro-1H-pyrazole-1-carboxamidine] | 260 to 263 °C |
| CCN(CC)S(=O)(=O)N=C(NC1CC1)N1CC(c2ccccc2)C(c2ccc(Cl)cc2)=N1 (stereo not drawn) | 150 to 151 °C |
| CSC(=NS(=O)(=O)N1CCCCC1)N1CC(c2ccccc2)C(c2ccc(Cl)cc2)=N1 (stereo not drawn) | 192 to 194 °C |
| CONC(=NS(=O)(=O)N(C)C)N1CC(c2ccccc2)C(c2ccc(Cl)cc2)=N1 (stereo not drawn) [Example 34, 3-(4-Chlorophenyl)-N′-((dimethylamino)sulfonyl)-N-methoxy-4-phenyl-4,5-dihydro-1H-pyrazole-1-carboxamidine] | 170 to 172 °C |
| CCCNC(=NS(=O)(=O)N(C)C)N1CC(c2ccccc2)C(c2ccc(Cl)cc2)=N1 (stereo not drawn) [Example 31, 3-(4-Chlorophenyl)-N′-((dimethylamino)sulfonyl)-N-propyl-4-phenyl-4,5-dihydro-1H-pyrazole-1-carboxamidine] | 127 to 129 °C |
| CSC(=NS(=O)(=O)N1CCCCC1)N1CC(c2c(F)cccc2F)C(c2ccc(Cl)cc2)=N1 (stereo not drawn) [Example 51, 3-(4-Chlorophenyl)-4-(2,6-difluorophenyl)-N-((piperidin-1-yl)sulfonyl)-4,5-dihydro-1H-pyrazole-1-carboximidothioic acid methyl ester] | 221 to 225 °C |
| CCCN(CC)S(=O)(=O)N=C(NC)N1CC(c2ccccc2)C(c2ccc(Cl)cc2)=N1 (stereo not drawn) [Example 1, 3-(4-Chlorophenyl)-N′-(((ethyl)propylamino)sulfonyl)-N-methyl-4-phenyl-4,5-dihydro-1H-pyrazole-1-carboxamidine] | 129 to 131 °C |
| CCN(CC)S(=O)(=O)N=C(NC)N1CC(c2ccccc2)C(c2ccc(Cl)s2)=N1 (stereo not drawn) [Example 58, 3-(5-Chlorothien-2-yl)-N′-((diethylamino)sulfonyl)-N-methyl-4-phenyl-4,5-dihydro-1H-pyrazole-1-carboxamidine] | 122 to 123 °C |
| CN(C)S(=O)(=O)N=C(NCCO)N1CC(c2ccccc2)C(c2ccc(Cl)cc2)=N1 (stereo not drawn) [Example 18, 3-(4-Chlorophenyl)-N′-((dimethylamino)sulfonyl)-N-(2-hydroxyethyl)-4-phenyl-4,5-dihydro-1H-pyrazole-1-carboxamidine] | 123 to 126 °C |
| CNC(=NS(=O)(=O)N(C)C)N1CC(c2cccc(F)c2)C(c2ccc(Cl)cc2)=N1 (stereo not drawn) [Example 85, 3-(4-Chlorophenyl)-N′-((dimethylamino)sulfonyl)-4-(3-fluorophenyl)-N-methyl-4,5-dihydro-1H-pyrazole-1-carboxamidine] | 110 °C |
